Measured values published in PubChem BioAssay AID248 (DTP/NCI, 2004).
Inconclusive results and toxic doses are left out. Cut-off read from the data, not from the text of the source: active = T/C of 150% or more; inactive = T/C below 125%.

Test system: L1210 leukemia ip in BDF1 mice, survival T/C
Assay: NCI In Vivo Anticancer Drug Screen. Data for tumor model L1210 Leukemia (intraperitoneal) in B6D2F1 (BDF1) mice
Settings: endpoint: mean survival time, higher = longer survival
How it was run: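 In this screen, tumor-bearing mice given compound are compared to those given vehicle, and their survival values are reported as a treated-to-control quotient.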

[1] = dose: 50.0 mg/kg/injection, schedule: Q04DX003 (ip), vehicle: Klucel (hydroxypropylcellulose) (HPC)
[2] = dose: 100.0 mg/kg/injection, schedule: Q04DX003 (ip), vehicle: Klucel (hydroxypropylcellulose) (HPC)
[3] = dose: 200.0 mg/kg/injection, schedule: Q04DX003 (ip), vehicle: Klucel (hydroxypropylcellulose) (HPC)
[4] = dose: 400.0 mg/kg/injection, schedule: Q04DX003 (ip), vehicle: Klucel (hydroxypropylcellulose) (HPC)
[5] = dose: 50.0 mg/kg/injection, schedule: Q01DX001 (ip), vehicle: carboxymethylcellulose (CMC)
[6] = dose: 100.0 mg/kg/injection, schedule: Q01DX001 (ip), vehicle: carboxymethylcellulose (CMC)
[7] = dose: 200.0 mg/kg/injection, schedule: Q01DX001 (ip), vehicle: carboxymethylcellulose (CMC)
[8] = dose: 400.0 mg/kg/injection, schedule: Q01DX001 (ip), vehicle: carboxymethylcellulose (CMC)
[9] = dose: 400.0 mg/kg/injection, schedule: Q04DX002 (ip), vehicle: saline with Tween-80
[10] = dose: 100.0 mg/kg/injection, schedule: Q01DX009 (ip), vehicle: saline with Tween-80
[11] = dose: 100.0 mg/kg/injection, schedule: Q04DX003 (ip), vehicle: saline with Tween-80
[12] = dose: 200.0 mg/kg/injection, schedule: Q01DX009 (ip), vehicle: saline with Tween-80
[13] = dose: 200.0 mg/kg/injection, schedule: Q04DX003 (ip), vehicle: saline with Tween-80
[14] = dose: 400.0 mg/kg/injection, schedule: Q01DX009 (ip), vehicle: saline with Tween-80
[15] = dose: 400.0 mg/kg/injection, schedule: Q04DX003 (ip), vehicle: saline with Tween-80

Measured: T/C

[B-][N+]12CC[N+]([B-])(CC1)CC2
inactive: dose: 0.06 mg/kg/injection, schedule: Q01DX009 (ip), vehicle: saline sonified 98 % of control | dose: 0.06 mg/kg/injection, schedule: Q04DX003 (ip), vehicle: saline sonified 113 % of control | dose: 0.13 mg/kg/injection, schedule: Q01DX009 (ip), vehicle: saline sonified 96 % of control | dose: 0.13 mg/kg/injection, schedule: Q04DX003 (ip), vehicle: saline sonified 96 % of control | dose: 0.25 mg/kg/injection, schedule: Q01DX009 (ip), vehicle: saline sonified 100 % of control | dose: 0.25 mg/kg/injection, schedule: Q04DX003 (ip), vehicle: saline sonified 103 % of control

Oc1cc[c]([Hg][Cl])cc1
inactive: dose: 12.5 mg/kg/injection, schedule: Q04DX003 (ip), vehicle: Klucel (hydroxypropylcellulose) (HPC) 105 % of control | dose: 25.0 mg/kg/injection, schedule: Q04DX003 (ip), vehicle: Klucel (hydroxypropylcellulose) (HPC) 111 % of control | [1] 99 % of control

O=C(O)CSC(SCC(=O)O)c1ccccc1
inactive: [1] 108 % of control | [2] 107 % of control | [3] 100 % of control | [4] 110 % of control

NC(N)=N/N=C\c1ccc(CCC(=O)O)cc1
inactive: dose: 15.0 mg/kg/injection, schedule: Q01DX Z (ip), vehicle: carboxymethylcellulose (CMC) 97 % of control | dose: 30.0 mg/kg/injection, schedule: Q01DX Z (ip), vehicle: carboxymethylcellulose (CMC) 97 % of control | dose: 60.0 mg/kg/injection, schedule: Q01DX Z (ip), vehicle: carboxymethylcellulose (CMC) 101 % of control | dose: 120.0 mg/kg/injection, schedule: Q01DX Z (ip), vehicle: carboxymethylcellulose (CMC) 97 % of control | dose: 120.0 mg/kg/injection, schedule: Q01DX Z (oral), vehicle: carboxymethylcellulose (CMC) 113 % of control | dose: 240.0 mg/kg/injection, schedule: Q01DX Z (oral), vehicle: carboxymethylcellulose (CMC) 112 % of control | dose: 480.0 mg/kg/injection, schedule: Q01DX Z (oral), vehicle: carboxymethylcellulose (CMC) 109 % of control | dose: 960.0 mg/kg/injection, schedule: Q01DX Z (oral), vehicle: carboxymethylcellulose (CMC) 109 % of control

O=C1C2(c3ccccc3)CC(Cc3ccccc3)C1(c1ccccc1)C(c1ccccc1)=C2c1ccccc1 (centres undefined)
inactive: [5] 100 % of control | [6] 97 % of control | [7] 111 % of control | [8] 95 % of control

CC(C)=CCCBr
inactive: dose: 50.0 mg/kg/injection, schedule: Q01DX009 (sc), vehicle: olive oil, sesame oil, peanut oil 108 % of control | dose: 100.0 mg/kg/injection, schedule: Q01DX009 (sc), vehicle: olive oil, sesame oil, peanut oil 102 % of control | dose: 200.0 mg/kg/injection, schedule: Q01DX009 (sc), vehicle: olive oil, sesame oil, peanut oil 108 % of control

c1cc2ccc1CCc1ccc(cc1)CC2
inactive: dose: 100.0 mg/kg/injection, schedule: Q01DX001 (ip), vehicle: saline with Tween-80 100 % of control | dose: 100.0 mg/kg/injection, schedule: Q01DX009 (ip), vehicle: saline sonified 94 % of control | dose: 200.0 mg/kg/injection, schedule: Q01DX001 (ip), vehicle: saline with Tween-80 102 % of control | dose: 200.0 mg/kg/injection, schedule: Q01DX009 (ip), vehicle: saline sonified 99 % of control | dose: 400.0 mg/kg/injection, schedule: Q01DX001 (ip), vehicle: saline with Tween-80 98 % of control | dose: 400.0 mg/kg/injection, schedule: Q01DX009 (ip), vehicle: saline sonified 93 % of control

O=[N+]([O-])c1ccc(/C=C/c2nnc(/C=C/c3ccc([N+](=O)[O-])cc3)o2)cc1
inactive: dose: 50.0 mg/kg/injection, schedule: Q04DX002 (ip), vehicle: saline with Tween-80 100 % of control | dose: 100.0 mg/kg/injection, schedule: Q04DX002 (ip), vehicle: saline with Tween-80 89 % of control | dose: 200.0 mg/kg/injection, schedule: Q04DX002 (ip), vehicle: saline with Tween-80 92 % of control | [9] 100 % of control

Nc1nc2c(nnn2C2CC(O)C(COP(=O)(O)O)O2)c(=O)[nH]1 (centres undefined)
inactive: dose: 100.0 mg/kg/injection, schedule: Q01DX001 (ip), vehicle: Klucel (hydroxypropylcellulose) (HPC) 96 % of control | dose: 200.0 mg/kg/injection, schedule: Q01DX001 (ip), vehicle: Klucel (hydroxypropylcellulose) (HPC) 91 % of control | dose: 400.0 mg/kg/injection, schedule: Q01DX001 (ip), vehicle: Klucel (hydroxypropylcellulose) (HPC) 94 % of control

CC(O)(/C=C\c1ccccc1)c1ccccc1 (centres undefined)
inactive: [10] 104 % of control | [11] 103 % of control | [12] 102 % of control | [13] 101 % of control | [14] 93 % of control | [15] 108 % of control

Oc1ccc(-c2n[nH]c3c2CCCc2ccccc2-3)cc1
inactive: dose: 12.5 mg/kg/injection, schedule: Q01DX001 (ip), vehicle: saline with Tween-80 101 % of control | dose: 12.5 mg/kg/injection, schedule: Q04DX003 (ip), vehicle: saline with Tween-80 103 % of control | dose: 25.0 mg/kg/injection, schedule: Q01DX001 (ip), vehicle: saline with Tween-80 104 % of control | dose: 25.0 mg/kg/injection, schedule: Q04DX003 (ip), vehicle: saline with Tween-80 106 % of control | dose: 50.0 mg/kg/injection, schedule: Q01DX001 (ip), vehicle: saline with Tween-80 108 % of control | dose: 50.0 mg/kg/injection, schedule: Q04DX003 (ip), vehicle: saline with Tween-80 92 % of control

Cc1cc(C(=O)c2ccccc2)ccc1O
inactive: [5] 100 % of control | [6] 96 % of control | [7] 91 % of control | [8] 96 % of control

Cc1ccc([Si](C)(C)C)cc1
inactive: dose: 25.6 mg/kg/injection, schedule: Q04DX002 (ip), vehicle: saline with Tween-80 90 % of control | dose: 64.0 mg/kg/injection, schedule: Q04DX002 (ip), vehicle: saline with Tween-80 104 % of control | dose: 160.0 mg/kg/injection, schedule: Q04DX002 (ip), vehicle: saline with Tween-80 90 % of control | [9] 90 % of control

CCOc1ccc(Nc2ncnc3nc[nH]c23)cc1CN(CCCl)C(C)CCl (centres undefined)
inactive: dose: 1.0 mg/kg/injection, schedule: Q01DX Z (ip), vehicle: saline 112 % of control | dose: 2.0 mg/kg/injection, schedule: Q01DX Z (ip), vehicle: saline 111 % of control | dose: 4.0 mg/kg/injection, schedule: Q01DX Z (ip), vehicle: saline 97 % of control

COc1ccc(Cc2nc(-c3ccc(N=Cc4ccc(N(CCCl)CCCl)cc4)cc3)cs2)cc1
inactive: [5] 88 % of control | [6] 92 % of control | [7] 97 % of control | [8] 94 % of control

Clc1ccc(C#Cc2ccc(Cl)cc2)cc1
inactive: dose: 6.25 mg/kg/injection, schedule: Q01DX009 (ip), vehicle: saline with Tween-80 103 % of control | dose: 12.5 mg/kg/injection, schedule: Q01DX009 (ip), vehicle: saline with Tween-80 103 % of control

CC(=O)Nc1ccc(/C=C/C(=O)c2ccc([N+](=O)[O-])cc2)cc1
inactive: [10] 94 % of control | [11] 91 % of control | [12] 94 % of control | [13] 94 % of control | [14] 94 % of control | [15] 90 % of control

CCC(=O)N(c1ccccc1)C1/C(=C\c2ccccc2)N2CCC1CC2 (centres undefined)
inactive: [2] 97 % of control | [3] 95 % of control | [4] 95 % of control
